From paper PMC9977294, “A parasitic fungus employs mutated eIF4A to survive on rocaglate-synthesizing Aglaia plants” (eLife, 2023)
Values joined by “and” are separate entries in the source; they are usually repeats but may differ in a detail not shown here. Identical values can stand only once.

How the values were obtained:
Assay in all cases: Fluorescence polarization assay, FAM-labeled [AG]10 RNA and recombinant eIF4A
Assay type in all cases: binding
[1] = molecular target: Ophiocordyceps sp. BRM1 eIF4A iso4 Gly172His; details: for Fluorescence polarization signal, FAM-labeled [AG]10 RNA, single replicates / Fluorescence polarization signal, FAM-labeled [AG]10 RNA, Mean: ADP + Pi, aglafoline; for Fluorescence polarization signal, FAM-labeled [AG]10 RNA, single replicates: Replicate 1-3; for Fluorescence polarization signal, FAM-labeled [AG]10 RNA, Mean: mean of 3 replicates
Description: (§1) The fluorescence polarization assay was performed as previously described ([Chen et al., 2021]). […] After incubation at room temperature for 30 min, the mixture was transferred to a black 384-well microplate (Corning), and the fluorescence polarization was measured by an Infinite F-200 PRO (Tecan). Under ADP + Pi conditions, 1 mM ADP (Fujifilm Wako Chemicals) and 1 mM Na2HPO4 were used as substitutes for AMP-PNP. The data were fitted to the Hill equation to calculate Kd values and visualized by Igor Pro v8.01 (WaveMetrics).

[2] = molecular target: Ophiocordyceps sp. BRM1 eIF4A iso4 WT Gly172; details: for Fluorescence polarization signal, FAM-labeled [AG]10 RNA, single replicates / Fluorescence polarization signal, FAM-labeled [AG]10 RNA, Mean: ADP + Pi, aglafoline; for Fluorescence polarization signal, FAM-labeled [AG]10 RNA, single replicates: Replicate 1-3; for Fluorescence polarization signal, FAM-labeled [AG]10 RNA, Mean: mean of 3 replicates
Description: as §1

[3] = molecular target: Ophiocordyceps sp. BRM1 eIF4A iso4 Gly172Phe; details: for Fluorescence polarization, Replicate 1-3 / fluorescence polarization, Mean: [AG]10 RNA, ADP + Pi, Aglafoline
Description: as §1

[4] = [AG]10 10 nM, ADP + Pi (1 mM each), compound 50 µM, read-out: Kd between eIF4A protein and RNA

COC(=O)[C@H]1[C@@H](O)[C@@]2(O)c3c(OC)cc(OC)cc3O[C@@]2(c2ccc(OC)cc2)[C@@H]1c1ccccc1 [Aglafoline, methyl rocaglate]
Kd [1, 4]: 1500 ± 140 nM | Fluorescence polarization signal, FAM-labeled [AG]10 RNA, single replicates ([1]; protein concentration 0.01 μM): -0.03825 and 0.04372 (2×) | Fluorescence polarization signal, FAM-labeled [AG]10 RNA, Mean ([1]; protein concentration 0.01 μM): 0.01639 | Fluorescence polarization signal, FAM-labeled [AG]10 RNA, single replicates ([1]; protein concentration 0.05 μM): 0.04372 and 0.1011 and 0.0765 | Fluorescence polarization signal, FAM-labeled [AG]10 RNA, Mean ([1]; protein concentration 0.05 μM): 0.07377 | Fluorescence polarization signal, FAM-labeled [AG]10 RNA, single replicates ([1]; protein concentration 0.075 μM): 0.0847 and 0.06011 and 0.03552 | Fluorescence polarization signal, FAM-labeled [AG]10 RNA, Mean ([1]; protein concentration 0.075 μM): 0.06011 | Fluorescence polarization signal, FAM-labeled [AG]10 RNA, single replicates ([1]; protein concentration 0.1 μM): 0.0847 and 0.06011 and 0.06831 | Fluorescence polarization signal, FAM-labeled [AG]10 RNA, Mean ([1]; protein concentration 0.1 μM): 0.07104 | Fluorescence polarization signal, FAM-labeled [AG]10 RNA, single replicates ([1]; protein concentration 0.5 μM): 0.3388 and 0.429 and 0.3634 | Fluorescence polarization signal, FAM-labeled [AG]10 RNA, Mean ([1]; protein concentration 0.5 μM): 0.377 | Fluorescence polarization signal, FAM-labeled [AG]10 RNA, single replicates ([1]; protein concentration 0.75 μM): 0.5191 and 0.4372 and 0.429 | Fluorescence polarization signal, FAM-labeled [AG]10 RNA, Mean ([1]; protein concentration 0.75 μM): 0.4617 | Fluorescence polarization signal, FAM-labeled [AG]10 RNA, single replicates ([1]; protein concentration 1 μM): 0.5765 and 0.7158 and 0.5847 | Fluorescence polarization signal, FAM-labeled [AG]10 RNA, Mean ([1]; protein concentration 1 μM): 0.6257 | Fluorescence polarization signal, FAM-labeled [AG]10 RNA, single replicates ([1]; protein concentration 5 μM): 1.011 and 0.9208 and 0.888 | Fluorescence polarization signal, FAM-labeled [AG]10 RNA, Mean ([1]; protein concentration 5 μM): 0.9399 | Fluorescence polarization signal, FAM-labeled [AG]10 RNA, single replicates ([1]; protein concentration 7.5 μM): 1.019 and 0.9372 and 0.9699 | Fluorescence polarization signal, FAM-labeled [AG]10 RNA, Mean ([1]; protein concentration 7.5 μM): 0.9754 | Fluorescence polarization signal, FAM-labeled [AG]10 RNA, single replicates ([1]; protein concentration 10 μM): 1.126 and 1.06 and 1.027 | Fluorescence polarization signal, FAM-labeled [AG]10 RNA, Mean ([1]; protein concentration 10 μM): 1.071 | Fluorescence polarization signal, FAM-labeled [AG]10 RNA, single replicates ([1]; protein concentration 25 μM): 1.208 and 1.167 and 1.15 | Fluorescence polarization signal, FAM-labeled [AG]10 RNA, Mean ([1]; protein concentration 25 μM): 1.175 | Fluorescence polarization signal, FAM-labeled [AG]10 RNA, single replicates ([1]; protein concentration 50 μM): 1.191 and 1.306 and 1.257 | Fluorescence polarization signal, FAM-labeled [AG]10 RNA, Mean ([1]; protein concentration 50 μM): 1.251 | Kd [2, 4]: 2600 ± 400 nM | Fluorescence polarization signal, FAM-labeled [AG]10 RNA, single replicates ([2]; protein concentration 0.01 μM): 0.02459 and 0.04098 and 0.008197 | Fluorescence polarization signal, FAM-labeled [AG]10 RNA, Mean ([2]; protein concentration 0.01 μM): 0.02459 | Fluorescence polarization signal, FAM-labeled [AG]10 RNA, single replicates ([2]; protein concentration 0.05 μM): 0.03279 and -0.008197 and -0.07377 | Fluorescence polarization signal, FAM-labeled [AG]10 RNA, Mean ([2]; protein concentration 0.05 μM): -0.01639 | Fluorescence polarization signal, FAM-labeled [AG]10 RNA, single replicates ([2]; protein concentration 0.075 μM): -0.04918 and -0.03279 and 0.01639 | Fluorescence polarization signal, FAM-labeled [AG]10 RNA, Mean ([2]; protein concentration 0.075 μM): -0.02186 | Fluorescence polarization signal, FAM-labeled [AG]10 RNA, single replicates ([2]; protein concentration 0.1 μM): -0.02459 and -0.04098 and -0.05738 | Fluorescence polarization signal, FAM-labeled [AG]10 RNA, Mean ([2]; protein concentration 0.1 μM): -0.04098 | Fluorescence polarization signal, FAM-labeled [AG]10 RNA, single replicates ([2]; protein concentration 0.5 μM): 0.1557 and -0.1066 and 0.01639 | Fluorescence polarization signal, FAM-labeled [AG]10 RNA, Mean ([2]; protein concentration 0.5 μM): 0.02186 | Fluorescence polarization signal, FAM-labeled [AG]10 RNA, single replicates ([2]; protein concentration 0.75 μM): 0.1967 and 0.03279 and 0.1721 | Fluorescence polarization signal, FAM-labeled [AG]10 RNA, Mean ([2]; protein concentration 0.75 μM): 0.1339 | Fluorescence polarization signal, FAM-labeled [AG]10 RNA, single replicates ([2]; protein concentration 1 μM): 0.09836 and 0.06557 and 0.1557 | Fluorescence polarization signal, FAM-labeled [AG]10 RNA, Mean ([2]; protein concentration 1 μM): 0.1066 | Fluorescence polarization signal, FAM-labeled [AG]10 RNA, single replicates ([2]; protein concentration 5 μM): 0.582 and 0.6803 and 0.5902 | Fluorescence polarization signal, FAM-labeled [AG]10 RNA, Mean ([2]; protein concentration 5 μM): 0.6175 | Fluorescence polarization signal, FAM-labeled [AG]10 RNA, single replicates ([2]; protein concentration 7.5 μM): 0.5902 and 0.6311 and 0.7541 | Fluorescence polarization signal, FAM-labeled [AG]10 RNA, Mean ([2]; protein concentration 7.5 μM): 0.6585 | Fluorescence polarization signal, FAM-labeled [AG]10 RNA, single replicates ([2]; protein concentration 10 μM): 0.6557 and 0.7049 and 0.7131 | Fluorescence polarization signal, FAM-labeled [AG]10 RNA, Mean ([2]; protein concentration 10 μM): 0.6913 | Fluorescence polarization signal, FAM-labeled [AG]10 RNA, single replicates ([2]; protein concentration 25 μM): 0.7787 and 0.8279 and 0.877 | Fluorescence polarization signal, FAM-labeled [AG]10 RNA, Mean ([2]; protein concentration 25 μM): 0.8279 | Kd [3, 4]: 110 ± 21 nM | Fluorescence polarization, Replicate 1-3 ([3]; protein concentration 0.01 μM): 0.1148 and 0.008197 and 0.04098 | fluorescence polarization, Mean ([3]; protein concentration 0.01 μM): 0.05464 | Fluorescence polarization, Replicate 1-3 ([3]; protein concentration 0.05 μM): 0.2869 (2×) and 0.3279 | fluorescence polarization, Mean ([3]; protein concentration 0.05 μM): 0.3005 | Fluorescence polarization, Replicate 1-3 ([3]; protein concentration 0.075 μM): 0.3689 and 0.3279 and 0.2869 | fluorescence polarization, Mean ([3]; protein concentration 0.075 μM): 0.3279 | Fluorescence polarization, Replicate 1-3 ([3]; protein concentration 0.1 μM): 0.5164 and 0.3115 and 0.2787 | fluorescence polarization, Mean ([3]; protein concentration 0.1 μM): 0.3689 | Fluorescence polarization, Replicate 1-3 ([3]; protein concentration 0.5 μM): 0.9262 and 0.9426 and 0.8197 | fluorescence polarization, Mean ([3]; protein concentration 0.5 μM): 0.8962 | Fluorescence polarization, Replicate 1-3 ([3]; protein concentration 0.75 μM): 0.9508 and 0.8443 and 0.8934 | fluorescence polarization, Mean ([3]; protein concentration 0.75 μM): 0.8962 | Fluorescence polarization, Replicate 1-3 ([3]; protein concentration 1 μM): 0.7869 and 0.877 and 0.7623 | fluorescence polarization, Mean ([3]; protein concentration 1 μM): 0.8087 | Fluorescence polarization, Replicate 1-3 ([3]; protein concentration 5 μM): 0.9016 and 0.9426 and 0.8852 | fluorescence polarization, Mean ([3]; protein concentration 5 μM): 0.9098 | Fluorescence polarization, Replicate 1-3 ([3]; protein concentration 7.5 μM): 0.8934 and 1.016 and 0.9344 | fluorescence polarization, Mean ([3]; protein concentration 7.5 μM): 0.9481 | Fluorescence polarization, Replicate 1-3 ([3]; protein concentration 10 μM): 1.057 and 0.8934 and 0.877 | fluorescence polarization, Mean ([3]; protein concentration 10 μM): 0.9426 | Fluorescence polarization, Replicate 1-3 ([3]; protein concentration 25 μM): 0.8852 and 1.033 and 1.057 | fluorescence polarization, Mean ([3]; protein concentration 25 μM): 0.9918
